# In article PMC8929329, “The pharmaceutical excipient PEG400 affect the absorption of baicalein in Caco‐2 monolayer model by interacting with UDP‐glucuronosyltransferases and efflux transport proteins” (Pharmacology Research & Perspectives, 2022):
# Experiments:
# [1] = Stability study in HBSS; type: physicochemical; conditions: 37°C, 2 h
# Description: The test was carried out by measuring the content of B, BG, and B6G before and after keeping in the HBSS solution at 37°C for 2 h. The time interval was selected according to the permeation experiment. The differences between the contents of the three samples before or after the incubation were calculated and expressed as the percentage of B, BG, and B6G remaining.
# [2] = Permeation experiments on Caco-2 cell monolayer (two-way transport); type: in vitro ADME, human; conditions: human, Caco-2, 5 µM; for efflux ratio at 120 min, 5 µM: read-out: ER (P BL-AP)/(P AP-BL); for Papp A→B at 120 min, 5 µM: read-out: P app Absorptive (AP-BL); for Papp B→A at 120 min, 5 µM: read-out: P app Secretory (BL-AP)
# Description: (§1) Cell culture was performed as previously described.[15] For transport experiments, Caco-2 cells from passage number 20-30 were seeded at a density of 2 × 10^5 cells per well on transwell plate (a solid insert for cell culture contains porous permeable polycarbonate membrane) with polycarbonate membranes using a blood-counting chamber (QIU JING®). A 0.5 ml of culture medium with cells was added to the apical side (AP) and 1.5 ml of blank culture medium was added to the basolateral side (BL). During the incubation period, the medium on the AP and BL sides were changed every 2 days in the first week, and every day after a week until the 21st day. The permeation of samples was assessed in both directions at different concentrations. This experiment assessed the influence of different concentrations (%, v/v) of PEG400 on the permeation process of B, BG, and […]. […] Caco-2 cell monolayers with qualified monolayer membrane integrity were used for drug permeability experiments. Aspirated and discarded the original culture medium in the transwell plate, added pre-warmed (37°C) HBSS to wash 3 times, put it in the incubator for the last time and incubated for 30 min. […] For the AP-BL permeability (absorptive transport study), add 0.5 ml of samples (dissolved in HBSS) to the apical side (AP) as a supply chamber, and add 1.5 ml of pre-warmed HBSS to the basolateral side (BL) as a receiving chamber. Alternatively, in the permeation direction of BL-AP compartment (secretive transport study), add 1.5 ml of samples (dissolved in HBSS) to the BL side as a supply chamber, and add 0.5 ml of pre-warmed HBSS to the AP side as a receiving chamber. After the above steps, put the transwell plate on the thermostatic oscillator (Changzhou Wanhe Instrument Manufacturing Co., Ltd.) at 60 r/min. And sample 100 μl from the receiving pool or 10 μl from the supply chamber at 30, 60, 90, and 120 min depending on the experiment, and make up the same volume of blank pre-warmed HBSS. The sample taken from the transwell plate was precipitated with the 100 μl of methanol to precipitate the protein. After centrifugation at 16 000g for 15 min at 4°C, 70 μl of the supernatant was taken. And the content was determined by UPLC-MS/MS method to calculate the apparent permeability coefficient (P app) and efflux ratio (ER). The P app and ER of Caco-2 monolayers was measured and calculated as Equations ((2), (3), (4)): (2) Papp=dQ/dt/AC0 Where ΔQ/Δt (ng/ml·s) is the rate of permeability (ng/ml·s for B, BG, […]); A is for the membrane area (1.12 cm^2); C 0 (ng/ml/for B, BG, […]) is the initial concentration of the sample in the supply chamber. The apparent permeability might need to be corrected because of the effect of the marked amount of baicalein glucuronide.[17] Thus, the corrected permeability was calculated from the total rate of drug transport and the glucuronide excretion rate of bidirectional side divided by the membrane area (A) of the monolayer and the initial concentration of baicalein at the loading side (C 0): (3) Pcorrected=dQ/dt+Aex+Bex/AC0 (4) […] - BL Where P appBL-AP is the apparent permeability coefficient when the sample is added on the basolateral side; […]-BL is the apparent permeability coefficient when the sample is added on the apical side.
# [3] = system: BCRP; experiment: as above; type: in vitro ADME, human; conditions: human, Caco-2, with KO143 10 µM (BCRP inhibitor), 5 + 10 µM KO143 (BCRP inhibitor); for efflux ratio at 120 min, 5 µM: read-out: ER (P BL-AP)/(P AP-BL); for Papp A→B at 120 min, 5 µM: read-out: P app Absorptive (AP-BL); for Papp B→A at 120 min, 5 µM: read-out: P app Secretory (BL-AP)
# Description: as §1
# [4] = system: Caco-2 cell monolayer; experiment: as above; type: in vitro ADME, human; conditions: for P appAL-BL / P appBL-AL: 5 μM in supply chamber; for permeation within 2 h compared with the control group: AL-BL experiment, baicalein 10 μM loaded with 0.5% (v/v) PEG400; for penetration within 2 h compared with the control group: BL-AP experiment, baicalein 10 μM loaded with 0.5% (v/v) PEG
# Description: as §1
# [5] = system: MRP2; experiment: as above; type: in vitro ADME, human; conditions: human, Caco-2, with MK-571 10 µM, 5 + 10 µM MK571 (MRP inhibitor); for efflux ratio at 120 min, 5 µM: read-out: ER (P BL-AP)/(P AP-BL); for Papp A→B at 120 min, 5 µM: read-out: P app Absorptive (AP-BL); for Papp B→A at 120 min, 5 µM: read-out: P app Secretory (BL-AP)
# Description: as §1
# [6] = system: P-gp; experiment: as above; type: in vitro ADME, human; conditions: human, Caco-2, with verapamil 10 µM, 5 + 10 µM Ver (P-GP inhibitor); for efflux ratio at 120 min, 5 µM: read-out: ER (P BL-AP)/(P AP-BL)
# Description: as §1
# [7] = parameters: method as in doi:10.2174/1573412916666200206141439; conditions: effect of PEG400; cited from earlier work
SMILES,Stability (percentage remaining) ([1]; 150 ng ml^−1) [%],Stability (percentage remaining) ([1]; 300 ng ml^−1) [%],Stability (percentage remaining) ([1]; 600 ng ml^−1) [%],"efflux ratio at 120 min, 5 µM [2]","Papp A→B at 120 min, 5 µM [2] [×10⁻⁶ cm/s]","Papp B→A at 120 min, 5 µM [2] [×10⁻⁶ cm/s]","efflux ratio at 120 min, 5 µM [3]","Papp A→B at 120 min, 5 µM [3] [×10⁻⁶ cm/s]","Papp B→A at 120 min, 5 µM [3] [×10⁻⁶ cm/s]",ER (P BL-AP)/(P AP-BL) ([4]; 5 µM + 0.25%PEG400),P app Absorptive (AP-BL) ([4]; 5 µM + 0.25%PEG400),P app Secretory (BL-AP) ([4]; 5 µM + 0.25%PEG400),ER (P BL-AP)/(P AP-BL) ([4]; 5 µM + 0.5%PEG400),P app Absorptive (AP-BL) ([4]; 5 µM + 0.5%PEG400),P app Secretory (BL-AP) ([4]; 5 µM + 0.5%PEG400),ER (P BL-AP)/(P AP-BL) ([4]; 5 µM + 1%PEG400),P app Absorptive (AP-BL) ([4]; 5 µM + 1%PEG400),P app Secretory (BL-AP) ([4]; 5 µM + 1%PEG400),P appAL-BL [4] [×10⁻⁶ cm/s],P appBL-AL [4] [×10⁻⁶ cm/s],other results
"O=C(O)[C@H]1O[C@@H](Oc2c(O)cc3oc(-c4ccccc4)cc(=O)c3c2O)[C@H](O)[C@@H](O)[C@@H]1O [B6G, baicalein‐6‐O‐β‐D‐glucuronide]",98.71 ± 6.52,99.36 ± 6.23,94.32 ± 5.33,1.1,6.38 ± 0.26,6.35 ± 0.55,0.71,6.68 ± 0.06,4.77 ± 0.09,0.93,6.74 ± 0.22 1 × 10^−6 cm·s^−1,6.3 ± 0.98 1 × 10^−6 cm·s^−1,0.71,6.15 ± 0.17 ^* 1 × 10^−6 cm·s^−1,4.39 ± 0.31 ^* 1 × 10^−6 cm·s^−1,0.56,7.53 ± 0.48 ^* 1 × 10^−6 cm·s^−1,4.24 ± 0.25 ^** 1 × 10^−6 cm·s^−1,6.38 ± 0.26,6.35 ± 0.55,"ER (P BL-AP)/(P AP-BL) ([4]; 5 µM): 1.01; P app Absorptive (AP-BL) ([4]; 5 + 10 µM Ver (P-GP inhibitor)): 6.37 ± 0.15 1 × 10^−6 cm·s^−1; P app Secretory (BL-AP) ([4]; 5 + 10 µM Ver (P-GP inhibitor)): 6.26 ± 0.2 1 × 10^−6 cm·s^−1; permeation within 2 h compared with the control group [4]: significantly increased; penetration within 2 h compared with the control group [4]: did not show a significant difference; efflux ratio at 120 min, 5 µM [5]: 0.65; Papp A→B at 120 min, 5 µM [5]: 6.91 ± 0.23 ×10⁻⁶ cm/s; Papp B→A at 120 min, 5 µM [5]: 4.56 ± 0.21 ×10⁻⁶ cm/s; efflux ratio at 120 min, 5 µM [6]: 0.98; AUC0-t in plasma [7]: significantly increased; C max in plasma [7]: significantly increased"
"O=C(O)[C@H]1O[C@@H](Oc2cc3oc(-c4ccccc4)cc(=O)c3c(O)c2O)[C@H](O)[C@@H](O)[C@@H]1O [BG, baicalein‐7‐O‐β‐D‐glucuronide]",93.35 ± 8.25,99.20 ± 2.56,100.61 ± 4.92,1.57,6.52 ± 0.28,10.2 ± 0.37,0.62,10.9 ± 0.4,7.31 ± 0.9,1.03,9.91 ± 0.21 ^** 1 × 10^−6 cm·s^−1,10.24 ± 0.95 1 × 10^−6 cm·s^−1,0.65,15.98 ± 0.11 ^** 1 × 10^−6 cm·s^−1,10.36 ± 0.05 1 × 10^−6 cm·s^−1,0.57,14.37 ± 0.99 ^** 1 × 10^−6 cm·s^−1,8.24 ± 0.07 ^** 1 × 10^−6 cm·s^−1,6.52 ± 0.28,10.23 ± 0.37,"permeation within 2 h compared with the control group [4]: significantly increased; penetration within 2 h compared with the control group [4]: did not show a significant difference; efflux ratio at 120 min, 5 µM [5]: 0.86; Papp A→B at 120 min, 5 µM [5]: 13.2 ± 1.22 ×10⁻⁶ cm/s; Papp B→A at 120 min, 5 µM [5]: 11.4 ± 0.56 ×10⁻⁶ cm/s; efflux ratio at 120 min, 5 µM [6]: 1.65; Papp A→B at 120 min, 5 µM ([6]; read-out: P app Absorptive (AP-BL)): 6.37 ± 0.53 ×10⁻⁶ cm/s; Papp B→A at 120 min, 5 µM ([6]; read-out: P app Secretory (BL-AP)): 10.5 ± 0.14 ×10⁻⁶ cm/s; AUC0-t in plasma [7]: significantly increased; C max in plasma [7]: significantly increased"
